From patent US9102754B2, “Immunomodulatory compositions and methods for treating disease with modified host defense peptides” (priority 2007, dated 2015)
Like-named read-outs stand apart in the source and are kept apart here. Non-standard residues stand in square brackets, D forms with d.

Tests used:
[1] = system: Salmonella typhimurium ATCC 14028, Escherichia coli O157:H7, Serratia marcescens ATCC 274, Yersinia enterocolitica O:9 E40 (pYV40), Pseudomonas cepacia ATCC …; experiment: Minimal inhibitory concentration, modified broth microdilution; format: cell-based
From the text: The present study examined the direct antimicrobial activity of BMAP-28 and RI-BMAP-28 against a series of bacterium which are of medical interest. […] This conclusion is also consistent with the maintained sequence and structure of the RI-BMAP-28. Antimicrobial activity, which is dependent upon non-chiral interactions with bacterial membranes, is anticipated to have the lowest structural requirements for maintenance of activity.
The bacterial strains used for this investigation were Salmonella typhimurium ATCC 14028, Escherichia coli O157:H7, Serratia marcescens ATCC 274, Yersinia enterocolitica O:9 E40 (pYV40), Pseudomonas cepacia ATCC 53795, and Salmonella enterititidis 27655R PT4.
The MIC of the peptides were measured using a modified broth microdilution method, Wu et al., Antimicrob. Agents Chemother. 43: 1274-1276, 1999, in LB medium, whereby the assay was performed in sterile 96-well, round-bottom polypropylene microtitre plates with an inoculum of 5×10^5 bacteria per mL. The plates were incubated at 37° C. for 12 h, solutions spotted onto LB-agar plates and the MIC was taken as the concentration at which no growth was observed.

PhoQ = target: T1, PhoQ (Salmonella typhimurium, UniProt P0DM80); experiment: PhoPQ reporter assay (PhoN-PhoA fusion); format: cell-based, S. typhimurium strain CS 120; conditions: 5 μg/mL peptide, 5 mM magnesium
T1 construct: S. typhimurium strain CS 120, which expresses a PhoP-regulated fusion between Salmonella acid phosphatase (PhoN) and E. coli alkaline phosphatase (PhoA); endogenous in cells; host or cells: S. typhimurium strain CS 120
T1 sequence (P0DM80 whole entry, the tested form may be a part): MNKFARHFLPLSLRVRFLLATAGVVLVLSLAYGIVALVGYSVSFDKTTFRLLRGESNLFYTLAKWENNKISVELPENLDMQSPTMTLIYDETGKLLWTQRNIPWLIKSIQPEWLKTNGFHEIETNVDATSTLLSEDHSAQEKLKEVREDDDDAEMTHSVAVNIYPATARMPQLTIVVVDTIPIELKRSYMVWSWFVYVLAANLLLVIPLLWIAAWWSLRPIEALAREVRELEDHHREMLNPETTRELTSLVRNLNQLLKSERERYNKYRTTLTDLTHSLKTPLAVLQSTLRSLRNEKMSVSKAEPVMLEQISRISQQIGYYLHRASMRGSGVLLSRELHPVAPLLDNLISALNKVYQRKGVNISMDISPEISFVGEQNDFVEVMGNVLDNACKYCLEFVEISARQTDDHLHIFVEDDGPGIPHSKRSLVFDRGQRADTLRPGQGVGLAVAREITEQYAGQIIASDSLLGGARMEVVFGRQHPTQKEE
Procedure: S. typhimurium strain CS 120, which expresses a PhoP-regulated fusion between Salmonella acid phosphatase (PhoN) and E. coli alkaline phosphatase (PhoA), was utilized for the analysis of PhoPQ activation. The activity of this fusion protein was measured in media containing varying concentrations of the peptides and/or magnesium. For growth under PhoPQ activating conditions the growth media was supplemented with 50 μM MgCl2. Growth under PhoPQ-repressive conditions was performed in the presence of 5 mM MgCl2 as were all of the assays of peptide responses.
The ability of BMAP28 and RI-BMAP28 to initiate activation of a PhoPQ-dependent reporter was examined by incubation of bacterium in the presence of sub-lethal (5 μg/mL) concentrations of indicated peptide as well as 5 mM magnesium. Values reported represent the averages of three replicates. Activation and repression of PhoPQ by low (50 μM) and high (5 mM) magnesium respectively is also reported.
S. typhimurium strain CS 120, which expresses a PhoP-regulated fusion between Salmonella acid phosphatase (PhoN) and E. coli alkaline phosphatase (PhoA) was utilized for analysis of PhoPQ activation. The activity of this fusion protein was measured in salt-free LB media containing varying concentrations of the peptides and/or magnesium. For growth under PhoPQ activating conditions the growth media was supplemented with 50 μM MgCl2. […]

[2] = system: LPS-induced expression of BIRC3, CCL20, IL-8 and IL-10 in bovine monocytes; experiment: HDP inhibition of LPS-induced gene expression (qRT-PCR); format: cell-based; conditions: 100 ng/ml LPS; for reduction of LPS-induced CCL20 expression / reduction of LPS-induced IL-8 expression / reduction of LPS-induced IL-10 expression: 0.5 μg/mL peptide; for suppression of the induction of LPS-induced genes: 5 μg/mL peptide, 4 hours
From the text: The induction of inflammation responses by lipopolysaccharide (LPS) has clinical significance as a mechanism of sepsis and also serves as a biomarker for the ability of HDPs to mediate anti-endotoxic function. Our investigation focuses on patterns of expression of genes (BIRC3, CCL20, IL-8 and IL-10) identified through microarray analysis to show the most significant levels of differential expression in response to LPS-stimulation in monocytes, Mookherjee et al., J. Leokocyte. Biol. 80:1-12, 2006; Mookherjee et al., J. Immunol. 176: 2455-2464, 2006. […] Biol. 80:1-12, 2006; Mookherjee et al., J. Immunol. 176: 2455-2464, 2006.
The data presented represents the average of experiments performed in triplicate for a single animal. While all three animals, each tested in triplicate, gave the same trend of responses, the magnitude of these responses is unique for each animal. This is typical of the animal-to-animal variation in the magnitude of LPS-induced responses that has been observed by our group.
Monocytes were purified from isolated PBMCs by MACS® purification using CD14 microbeads (Miltenyi Biotec Inc., Auburn, Calif.). Monocytes were then plated at 5×10^6 cells/well in 6-well plates using Aim V medium (Gibco™, Invitrogen Corp., San Diego, Calif.) supplemented with 10% heat-inactivated fetal bovine serum (Gibco™) and rested for 19 hours before stimulation.
The ability of BMAP-28 and RI-BMAP-28 to modulate patterns of gene expression induced by endotoxin stimulation was determined in cultured monocytes. Cultured monocytes were stimulated with purified LPS (100 ng/ml) in the presence or absence of different concentrations of antimicrobial peptides for 4 hours. […] Biol. 80:1-12, 2006; Mookherjee et al., J. Immunol. 176: 2455-2464, 2006, and in vivo, Clapp et al., Am. J. Respir. Cri. Care Med. 150: 611-617, 1994. Cells were pelleted and stored at −81° C.
RNA was extracted from the bovine PBMCs with the RNeasy Mini Kit (Qiagen Inc., Ontario, Canada) and the RNase-free DNase (Qiagen Inc.) as per the manufacturer's protocols.
Quantitive real-time PCR (qRT-PCR) was performed using Invitrogen's SuperScript™ III Platinum® two step qRT-PCR kit with SYBR® Green (Invitrogen Corp., San Diego, Calif.) on the Bio-Rad (Hercules, Calif.) iCycler. Briefly, 250 ng total RNA, 8 μL 2×RT reaction mix, 2 μL RT enzyme, and DNase/RNase free water were added to a final volume of 20 μL. The mixture was incubated at 25° C. for 5 minutes, followed by 1 hour incubation at 50° C. and a final incubation of 15 min at 70° C. to produce the cDNA. The PCR reaction was carried out as per the manufacturer's instructions (Invitrogen Corp.) using a mix of Platinum® SYBR® Green qRT-PCR Super-Mix UDG, the template cDNA, […] of the primer mix, and DNase/RNase free water up to 15 μL total volume per well. Cycling conditions were carried out as indicated by the Invitrogen's SuperScript™ III Platinum® two-step qRT-PCR kit with SYBR® Green.

[3] = system: LPS-induced TNF-α secretion in bovine PBMCs; experiment: HDP inhibition of LPS-induced TNF secretion (capture ELISA); format: cell-based; conditions: 100 ng/ml LPS, various peptide concentrations
From the text: As patterns expression are not necessarily predictive of final biological responses we sought to confirm the immunomodulatory capabilities of RI-BMAP-28 through independent analysis. Specifically, the ability of the two isomers to influence secretion of the pro-inflammatory cytokine tumor necrosis factor alpha (TNF-α) following LPS stimulation was examined. Secretion of TNF-α is a well established biomarker of inflammation responses (52).
The secretion of TNF in culture supernatants was quantified with a capture ELISA. Inhibition of LPS-induced TNF secretion was evaluated by adding various concentrations of BMAP-28 (▴) or retro-inverso RI-BMAP-28 (▪) to duplicate PBMCs cultures. The data presented experiments performed in a single animal. While all three animals gave the same trend of responses, the magnitude of these responses is unique for each animal. […]
Untreated cells or cells treated with LPS for 24 h, in the presence or absence of the HDPs, were centrifuged at 1000×g for 5 min followed by 10,000×g for 10 min to obtain cell-free tissue culture supernatant samples. […] TNF-α secretion was monitored with a species-specific capture ELISA (37). […] The concentration of the cytokine was quantified by establishing a standard curve with serial dilutions of the recombinant human TNF-α (eBioscience, San Diego, Calif.) or bovine TNFα (Genetech Inc. San Francisco, Calif.).

bovine erythrocytes = experiment: Cytotoxicity (hemolysis) assay; format: cell-based
Procedure: To determine the cytotoxicity of BMAP-28 and RI-BMAP-28 the peptides were incubated overnight at a range of concentrations in the presence of bovine erythrocytes. Consistent with what has been reported by others, BMAP-28 began to exert a cytotoxic effect at concentrations as low as 30 μg/mL. Complete hemolysis was observed by 200 μg/mL of BMAP-28. […] As toxicity currently represents a limiting factor to the systemic administration of HDPs this finding could be of particular significance.
Hemolysis was performed by incubating a 1% (v/v) suspension of bovine erythrocytes in phosphate buffered saline (pH 7.4) with a series of peptide concentrations for 12 hours at 37° C. Samples were then centrifuged and the supernatant absorbance read at 415 nm. Total hemolysis was obtained by resuspending in cells in water rather than PBS. Results are the average from four independent experiments.
Cytotoxicity assays were performed as based upon previously established protocols, Chen et al., Chem. Biol. Drug Des. 67: 162-173, 2006. Briefly, peptide samples were added to 1% bovine erythrocytes in phosphate-buffered saline and reactions were incubated at 37° C. for 18 h in microtiter plates. Appropriate dilutions of the peptides were made fresh prior to each MHC trial in HDP dilution buffer (0.2% BSA, 0.01% acetic acid) and added following addition of the erythrocytes in the appropriate microtiter plate well position. Hemolysis was determined by withdrawing aliquots from the assays, removing unlysed erythrocytes by centrifugation (800×g) and determining which peptide concentrations cause hemoglobin release. Hemoglobin release was determined spectrophotometrically at 570 nm. A sample of 1% erythrocytes with no added peptide served as a non-lysis control. As erythrocytes were incubated in an isotonic medium, no detectable release (<1% of that released upon complete hemolysis) of hemoglobin was observed from this control.

mice = conditions: cited from earlier work

Row | Substance | potency as direct antimicrobial agent versus natural isomer ([1]; against a spectrum of bacteria) | MIC values relative to that of the natural peptide ([1]; all strains tested, LB medium, 37° C., 12 h) | activation of PhoPQ-dependent reporter (PhoQ) | reduction of LPS-induced CCL20 expression [2] | reduction of LPS-induced IL-8 expression [2] | reduction of LPS-induced IL-10 expression [2] | suppression of the induction of LPS-induced genes [2] | inhibition of LPS-induced TNF-α secretion [3] | cytotoxic effects over the range of peptide concentrations examined (bovine erythrocytes; 1% bovine erythrocytes in PBS, overnight, 37° C.) | concentration at which a cytotoxic effect begins (bovine erythrocytes) [µg/mL] | concentration giving complete hemolysis (bovine erythrocytes) [µg/mL] | LD50 (mice; administered intravenously) [mg/kg] | LD50 (mice; mice, i.p. administration)
1 | D-amino acids of NH2-GIRIIPVIIPGYKKWARLIKRGLSRLG-COOH (H-G[dI][dR][dI][dI][dP][dV][dI][dI][dP]G[dY][dK][dK][dW][dA][dR][dL][dI][dK][dR]G[dL][dS][dR][dL]G-OH; also: retro-inverso) [RI-BMAP-28, retro-inversed form of BMAP-28] | 2-3 fold | half to a third | identical patterns of activation | two-fold reduction | four-fold | two-fold reduction | four to five-fold suppression | dose-dependent inhibition | did not exhibit any cytotoxic effects | – | – | – | –
2 | NH2-GLRSLGRKILRAWKKYGPIIVPIIRIG-COOH (H-GLRSLGRKILRAWKKYGPIIVPIIRIG-OH) [BMAP-28, natural host defense peptide, a 27 amino acid proteolytic product of the antibacterial peptide BMAP-28 precursor protein] | – | – | identical patterns of activation | two-fold reduction | four-fold | two-fold reduction | four to five-fold suppression | dose-dependent inhibition | – | 30 | ≤ 200 | 15 | approximately 40 mg/kg
